Laboratory results taken from paper PMC3525726 (Cancer research, 2012).

Key:
Assay type in all cases: biochemical
ABCC10 (MRP7) [1] = target: T1, ABCC10 (MRP7) (Homo sapiens, UniProt Q5T3U5); assay: Pi release ATPase inhibition assay; details: read-out: % inhibition at 0.625 μM
T1 sequence (Q5T3U5 1-1492): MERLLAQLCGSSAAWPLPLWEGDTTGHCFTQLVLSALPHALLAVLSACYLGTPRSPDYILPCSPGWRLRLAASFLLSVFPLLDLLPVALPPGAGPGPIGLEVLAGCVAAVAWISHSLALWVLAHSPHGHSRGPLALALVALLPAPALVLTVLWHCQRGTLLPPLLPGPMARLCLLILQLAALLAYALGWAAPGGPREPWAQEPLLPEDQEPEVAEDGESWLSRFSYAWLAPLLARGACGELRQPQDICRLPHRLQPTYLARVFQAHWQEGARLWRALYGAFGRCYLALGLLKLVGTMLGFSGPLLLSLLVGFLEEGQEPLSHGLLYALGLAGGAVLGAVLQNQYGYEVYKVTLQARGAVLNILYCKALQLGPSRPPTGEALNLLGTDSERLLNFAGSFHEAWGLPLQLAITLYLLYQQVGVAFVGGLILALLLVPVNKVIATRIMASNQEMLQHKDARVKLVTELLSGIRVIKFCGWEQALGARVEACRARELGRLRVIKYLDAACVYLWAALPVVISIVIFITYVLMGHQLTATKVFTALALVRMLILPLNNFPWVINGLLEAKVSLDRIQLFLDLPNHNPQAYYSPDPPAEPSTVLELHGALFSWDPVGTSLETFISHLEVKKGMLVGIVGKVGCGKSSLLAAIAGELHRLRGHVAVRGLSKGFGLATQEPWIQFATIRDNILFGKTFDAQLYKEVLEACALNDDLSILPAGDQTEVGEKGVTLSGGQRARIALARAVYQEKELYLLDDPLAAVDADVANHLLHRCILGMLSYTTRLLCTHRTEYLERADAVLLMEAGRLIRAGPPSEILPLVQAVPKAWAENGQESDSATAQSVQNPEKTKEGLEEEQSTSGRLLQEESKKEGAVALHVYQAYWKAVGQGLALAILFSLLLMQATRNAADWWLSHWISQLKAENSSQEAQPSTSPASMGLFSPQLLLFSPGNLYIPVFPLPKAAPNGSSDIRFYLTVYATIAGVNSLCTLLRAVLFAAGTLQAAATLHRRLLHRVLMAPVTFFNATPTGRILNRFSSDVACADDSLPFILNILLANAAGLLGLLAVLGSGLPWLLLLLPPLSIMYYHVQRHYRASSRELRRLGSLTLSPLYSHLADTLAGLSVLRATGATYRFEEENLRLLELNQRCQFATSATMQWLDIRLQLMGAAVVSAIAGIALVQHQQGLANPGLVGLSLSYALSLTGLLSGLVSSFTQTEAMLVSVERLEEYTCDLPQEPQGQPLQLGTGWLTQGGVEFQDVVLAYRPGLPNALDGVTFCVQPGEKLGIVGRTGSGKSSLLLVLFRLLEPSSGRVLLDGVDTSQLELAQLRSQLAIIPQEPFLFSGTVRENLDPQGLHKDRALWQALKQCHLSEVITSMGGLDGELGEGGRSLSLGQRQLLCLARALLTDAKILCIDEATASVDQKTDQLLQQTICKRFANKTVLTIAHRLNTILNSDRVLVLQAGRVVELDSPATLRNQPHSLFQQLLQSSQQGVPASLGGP

ABCC10 (MRP7) [2] = target: T1, ABCC10 (MRP7); assay: Pi release ATPase stimulation assay; details: 5 mM ATP, Mg2+, pH 7.5, 37 °C; crude membranes
ABCC10 (MRP7) [3] = target: T1, ABCC10 (MRP7); assay: Pi release ATPase stimulation assay; details: 5 mM ATP, Mg2+, pH 7.5, 37 °C; crude membranes; remark: listed apart in the source
ABCC10 (MRP7) [4] = target: T1, ABCC10 (MRP7); assay: Pi release ATPase inhibition assay; details: 5 mM ATP, Mg2+, pH 7.5, 37 °C; crude membranes
ABCC10 (MRP7) [5] = target: T1, ABCC10 (MRP7); assay: Pi release ATPase stimulation assay; details: 5 mM ATP, Mg2+, pH 7.5, 37 °C; crude membranes; remark: listed apart in the source

## C#Cc1cccc(Nc2ncnc3cc(OCCOC)c(OCCOC)cc23)c1 [erlotinib]
ABCC10 (MRP7) [1]
  inhibition at 0.625 µM: 47%

## Nc1ccn([C@@H]2O[C@H](CO)[C@@H](O)[C@@H]2O)c(=O)n1 [Ara-C]
ABCC10 (MRP7) [2]
  % stimulation of ATPase activity at 0.625 μM: 31.8%

## C[C@]12CC[C@@H]3c4ccc(O)cc4CC[C@H]3[C@@H]1CC[C@@H]2O[C@@H]1O[C@H](C(=O)O)[C@@H](O)[C@H](O)[C@H]1O [E217βG]
ABCC10 (MRP7) [3]
  % stimulation of ATPase activity: 30%

## Cc1ccc(NC(=O)c2ccc(CN3CCN(C)CC3)cc2)cc1Nc1nccc(-c2cccnc2)n1 [imatinib]
ABCC10 (MRP7) [4]
  % inhibition at 5 μM: cepharanthine, sorafenib, imatinib, nilotinib, erlotinib and lapatinib were effective inhibitors of ABCC10 ATPase activity

## CC(=O)O[C@H]1C(=O)[C@@]2(C)[C@H]([C@H](OC(=O)c3ccccc3)[C@]3(O)C[C@H](OC(=O)[C@H](O)[C@@H](NC(=O)c4ccccc4)c4ccccc4)C(C)=C1C3(C)C)[C@]1(OC(C)=O)CO[C@@H]1C[C@@H]2O [paclitaxel]
ABCC10 (MRP7) [5]
  % stimulation of ATPase activity at 5 μM: 15%

## Cc1cn(-c2cc(NC(=O)c3ccc(C)c(Nc4nccc(-c5cccnc5)n4)c3)cc(C(F)(F)F)c2)cn1 [nilotinib]
ABCC10 (MRP7) [1]
  inhibition at 0.625 µM: 41.4%

## CC(=O)O[C@@]12CO[C@@H]1C[C@H](O)[C@@]1(C)C(=O)[C@H](O)C3=C(C)[C@@H](OC(=O)[C@H](O)[C@@H](NC(=O)OC(C)(C)C)c4ccccc4)C[C@@](O)([C@@H](OC(=O)c4ccccc4)[C@H]21)C3(C)C [docetaxel]
ABCC10 (MRP7) [5]
  % stimulation of ATPase activity at 5 μM: 24.38%

## CNC(=O)c1cc(Oc2ccc(NC(=O)Nc3ccc(Cl)c(C(F)(F)F)c3)cc2)ccn1 [sorafenib]
ABCC10 (MRP7) [4]
  % inhibition at 5 μM: cepharanthine, sorafenib, imatinib, nilotinib, erlotinib and lapatinib were effective inhibitors of ABCC10 ATPase activity
